ChEMBL document CHEMBL1141515, “2-(1H-Imidazol-4-yl)ethanamine and 2-(1H-pyrazol-1-yl)ethanamine side chain variants of the IGF-1R inhibitor BMS-536924” (Bioorg Med Chem Lett, 2008)

Legend:
Mus musculus = assay: AUC (0 to 4h) in mouse at 20 mg/kg, po; format: ADME, organism-based, Plasma; design: time < 4 hr, dose 20 mg/kg, route oral; settings: in vivo
[1] = target: T1, Insulin-like growth factor 1 receptor (Homo sapiens, UniProt P08069); assay: Inhibition of IGF1R expressed in SAL cells; format: cell-based
T1 sequence (P08069 31-736 limits assumed): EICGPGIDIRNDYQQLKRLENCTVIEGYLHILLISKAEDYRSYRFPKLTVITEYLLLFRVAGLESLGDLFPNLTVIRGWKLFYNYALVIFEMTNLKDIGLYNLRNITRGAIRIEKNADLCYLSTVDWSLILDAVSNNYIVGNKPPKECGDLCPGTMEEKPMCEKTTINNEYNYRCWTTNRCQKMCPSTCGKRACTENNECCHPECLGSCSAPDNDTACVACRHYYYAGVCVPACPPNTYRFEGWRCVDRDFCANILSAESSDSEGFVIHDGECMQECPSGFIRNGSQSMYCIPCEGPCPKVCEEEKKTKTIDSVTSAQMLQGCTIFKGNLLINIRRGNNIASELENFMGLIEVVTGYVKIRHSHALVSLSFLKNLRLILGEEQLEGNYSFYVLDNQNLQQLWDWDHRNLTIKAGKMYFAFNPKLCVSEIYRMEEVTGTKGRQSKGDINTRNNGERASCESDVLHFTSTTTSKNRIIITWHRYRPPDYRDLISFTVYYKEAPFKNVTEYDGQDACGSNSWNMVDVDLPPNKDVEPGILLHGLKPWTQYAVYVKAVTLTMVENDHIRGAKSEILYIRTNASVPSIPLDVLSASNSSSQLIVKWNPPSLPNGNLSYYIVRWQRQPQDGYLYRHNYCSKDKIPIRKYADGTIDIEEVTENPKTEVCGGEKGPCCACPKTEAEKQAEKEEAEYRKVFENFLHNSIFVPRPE
T1 sequence (P08069 741-1367 limits assumed): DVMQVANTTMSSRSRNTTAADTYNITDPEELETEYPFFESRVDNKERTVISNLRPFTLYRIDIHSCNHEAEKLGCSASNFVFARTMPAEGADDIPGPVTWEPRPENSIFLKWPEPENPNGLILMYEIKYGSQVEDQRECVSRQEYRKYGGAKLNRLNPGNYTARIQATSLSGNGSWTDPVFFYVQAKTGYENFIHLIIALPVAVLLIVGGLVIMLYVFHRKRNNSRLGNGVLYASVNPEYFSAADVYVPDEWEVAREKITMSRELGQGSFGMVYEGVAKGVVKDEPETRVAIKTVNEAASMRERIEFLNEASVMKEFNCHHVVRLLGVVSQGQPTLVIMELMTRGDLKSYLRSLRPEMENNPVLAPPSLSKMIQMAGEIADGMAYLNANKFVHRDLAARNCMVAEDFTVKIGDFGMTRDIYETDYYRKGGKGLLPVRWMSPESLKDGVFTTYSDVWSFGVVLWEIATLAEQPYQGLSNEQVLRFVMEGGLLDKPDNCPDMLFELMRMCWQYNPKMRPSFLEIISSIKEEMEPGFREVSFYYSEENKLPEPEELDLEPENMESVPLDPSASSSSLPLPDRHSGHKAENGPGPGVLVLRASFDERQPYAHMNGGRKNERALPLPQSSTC

[2] = target: T1, Insulin-like growth factor 1 receptor; assay: Inhibition of IGF1R
Serum = assay: Protein binding in human serum; format: ADME, cell-free
[3] = Protein binding in mouse serum; format: ADME, cell-free; settings: read-out: PB

SMILES	AUC (Mus musculus) [µM·h]	also measured
Cc1cc(N2CCOCC2)cc2[nH]c(-c3c(NCCc4ncn(C)c4Cl)cc[nH]c3=O)nc12	8.2	
CCn1cnc(CCNc2cc[nH]c(=O)c2-c2nc3c(C)cc(N4CCOCC4)cc3[nH]2)c1Cl	50.9	
Cc1cc(N2CCOCC2)cc2[nH]c(-c3c(NCCc4cn(C)cn4)cc[nH]c3=O)nc12	3.8	
Cc1cc(N2CCOCC2)cc2[nH]c(-c3c(NCCc4nc(C)n(C)c4Cl)cc[nH]c3=O)nc12	36	
Cc1cc(N2CCOCC2)cc2[nH]c(-c3c(NCCc4nc(Cl)n(C)c4Cl)cc[nH]c3=O)nc12	32.2	
Cc1cnn(CCNc2cc[nH]c(=O)c2-c2nc3c(C)cc(N4CCOCC4)cc3[nH]2)c1	2.7	
CCOC(=O)c1cnn(CCNc2cc[nH]c(=O)c2-c2nc3c(C)cc(N4CCOCC4)cc3[nH]2)c1	4.9	
COC(=O)c1cnn(CCNc2cc[nH]c(=O)c2-c2nc3c(C)cc(N4CCOCC4)cc3[nH]2)c1	14.1	
Cc1cc(N2CCOCC2)cc2[nH]c(-c3c(NCCn4cccn4)cc[nH]c3=O)nc12	1.6	
Cc1cc(N2CCOCC2)cc2[nH]c(-c3c(NCCn4cc(Br)c(CO)n4)cc[nH]c3=O)nc12	2	
Cc1cc(N2CCOCC2)cc2[nH]c(-c3c(NCCn4nccc4C)cc[nH]c3=O)nc12	5.2	IC50 [1]: 542 nM; IC50 [2]: 270 nM
Cc1nn(CCNc2cc[nH]c(=O)c2-c2nc3c(C)cc(N4CCOCC4)cc3[nH]2)cc1Br	132	
Cc1nn(CCNc2cc[nH]c(=O)c2-c2nc3c(C)cc(N4CCOCC4)cc3[nH]2)cc1Cl	57.8	
Cc1cc(N2CCOCC2)cc2[nH]c(-c3c(NCCn4cc(Cl)cn4)cc[nH]c3=O)nc12	90.3	
Cc1ccn(CCNc2cc[nH]c(=O)c2-c2nc3c(C)cc(N4CCOCC4)cc3[nH]2)n1	1.2	IC50 [1]: 422 nM; IC50 [2]: 290 nM
Cc1cc(N2CCOCC2)cc2[nH]c(-c3c(NC[C@@H](O)c4cccc(Cl)c4)cc[nH]c3=O)nc12	50.9	PB (Serum): 99.6%; fraction unbound [3]: < 0.001
Cc1cc(N2CCOCC2)cc2[nH]c(-c3c(NCCn4ncc(Br)c4C)cc[nH]c3=O)nc12	33	
CCn1cnc(CCNc2cc[nH]c(=O)c2-c2nc3c(C)cc(N4CCOCC4)cc3[nH]2)c1Br		IC50 [1]: 284 nM; IC50 [2]: 172 nM
